Data set [1] is described as follows: Plasma protein binding by equilibrium dialysis, human. The format is in vitro ADME. The settings on record: plasma (EDTA-K2 as anticoagulant). How it is done: (§1) The in vitro binding of ZB716 to plasma proteins was determined by equilibrium dialysis technique in mouse, rat, dog, monkey, and human plasma (EDTA-K2 as anticoagulant), over the concentration range of 0.1–10 μM. The free concentration of ZB716 was below the lower limit of quantitation at 0.1, 1, and 10 μM in human, monkey, dog, rat, and mouse plasma.
(§2) The equilibrium dialysis method was used to investigate the in vitro binding of ZB716 to human, monkey, dog, rat, and mouse plasma proteins. The dialysis phosphate buffer solution (100 mM, pH 7.4) and plasma samples containing 0.1, 1, and 10 μM of ZB716 were added to separate chambers of dialysis wells of the HTDialysis device. The dialysis plate was placed in an incubator at 37 °C with 5% CO2 at approximately 100 rpm for 6 h. After incubation, the seal was removed, and 50 μL each of post-dialysis samples was pipetted from both the buffer and plasma chambers into fresh 96-well plates. The samples were analyzed via UPLC–MS/MS. The bound fraction, unbound fraction, recovery (%), and remaining (%) were calculated by Equations (2)–(5):%Unbound = (Conc.buffer chamber/Conc.plasma chamber) × 100(2) %Bound = 100% − %Unbound (3) %Recovery = (Conc.buffer chamber + Conc.plasma chamber)/Conc.Total sample × 100 (4) %Remaining = Conc.6h/Conc.0h × 100 (5)

Data set [2] relates to human plasma proteins. Described as above. Format: in vitro ADME. Conditions: for Remaining: 6 h. As to the method: as §1, §2

The compound `C[C@]12CC[C@@H]3c4ccc(B(O)O)cc4C[C@@H](CCCCCCCCC[S+]([O-])CCCC(F)(F)C(F)(F)F)[C@H]3[C@@H]1CC[C@@H]2O` (some centres unmarked) [ZB716, fulvestrant-3-boronic acid] came in with a recovery at 6 h, 0.1 μM in data set [1] (pH 7.4, 0.1 μM) of less than 69.1%. The recovery at 6 h, 1 μM in data set [1] (pH 7.4, 1 μM) is less than 64%. For the same compound, the recovery at 6 h, 10 μM in data set [1] (pH 7.4, 10 μM) was less than 74.7%. Moreover, in data set [2] (0.1 μM), the Bound is recorded as greater than 95.7%, the Unbound is given as less than 4.33% and the Remaining was determined as 57.0 ± 7.7%. Further, in data set [2] (1 μM), the Bound was greater than 99.6%, the Unbound is given as less than 0.392% and the Remaining turned out to be 57.9 ± 4.9%. In data set [2] (10 μM), the Bound is recorded as greater than 99.96% and the Remaining is recorded as 74.5 ± 3.4%.
